Assay results: article PMC10112521, “High-throughput AR dimerization assay identifies androgen disrupting chemicals and metabolites” (Frontiers in Toxicology, 2023)
Where a name gives a salt, the structure may show the parent alone.

Legend:
AR2 cells (HepG2-AR2) = assay: Alamar Blue (resazurin) post hoc cell viability / cytotoxicity assay in AR2 cells; conditions: spid Viability, sheet antagonist_fits; for hill_tp (Hill model top): 0 where win_model is Constant
Procedure: For antagonist mode and cytotoxicity data, well-level normalized response (resp) was calculated as: resp=100 * RLU−bval/pval−bval where pval is the median RLU value of the MEC positive control wells (minimum four wells).

human AR [1] = target: T1, human AR (Homo sapiens, UniProt P10275); assay: AR2 assay, agonist mode: ligand-dependent AR homodimerization (NanoBiT luciferase complementation) in stable HepG2-AR2 cells; format: cell-based; conditions: sheet agonist_fits; for max_med: maximum median response;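 as to hill tp: Log2 fold change of luminescence over DMSO vehicle wells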;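 as to max med: Log2 fold change of luminescence over DMSO vehicle wells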
T1 sequence (P10275 1-920) 1: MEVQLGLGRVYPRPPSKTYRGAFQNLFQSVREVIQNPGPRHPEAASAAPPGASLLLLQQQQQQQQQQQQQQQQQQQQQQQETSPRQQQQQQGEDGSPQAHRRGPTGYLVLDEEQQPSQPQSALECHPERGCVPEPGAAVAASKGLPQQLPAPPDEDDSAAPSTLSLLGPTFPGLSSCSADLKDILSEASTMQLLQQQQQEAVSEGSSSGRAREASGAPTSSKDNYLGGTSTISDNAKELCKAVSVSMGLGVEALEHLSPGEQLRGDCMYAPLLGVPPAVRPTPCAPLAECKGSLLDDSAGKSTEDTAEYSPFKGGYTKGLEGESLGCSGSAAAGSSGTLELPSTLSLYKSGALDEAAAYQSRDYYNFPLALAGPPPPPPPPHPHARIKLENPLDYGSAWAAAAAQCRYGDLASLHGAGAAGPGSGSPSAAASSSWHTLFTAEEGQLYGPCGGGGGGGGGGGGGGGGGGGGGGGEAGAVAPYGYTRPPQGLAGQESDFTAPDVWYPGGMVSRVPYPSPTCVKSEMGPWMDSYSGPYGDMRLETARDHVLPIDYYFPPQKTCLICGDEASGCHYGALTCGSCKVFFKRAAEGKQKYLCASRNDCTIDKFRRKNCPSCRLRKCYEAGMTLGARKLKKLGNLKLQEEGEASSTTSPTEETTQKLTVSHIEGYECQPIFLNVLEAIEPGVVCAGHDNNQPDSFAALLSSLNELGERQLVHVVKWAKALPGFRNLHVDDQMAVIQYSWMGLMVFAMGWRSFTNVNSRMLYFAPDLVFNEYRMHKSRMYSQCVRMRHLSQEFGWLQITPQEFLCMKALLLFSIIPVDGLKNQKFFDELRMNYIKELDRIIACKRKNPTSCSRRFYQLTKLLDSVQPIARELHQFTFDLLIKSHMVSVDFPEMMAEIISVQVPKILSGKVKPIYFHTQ
T1 sequence (P10275 1-920) 2: T1 sequence (P10275 1-920) 1

human AR [2] = target: T1, human AR; assay: AR2 assay, antagonist mode: disruption of R1881 (10 nM)-induced AR homodimerization in HepG2-AR2 cells; format: cell-based; conditions: spid AR_antagonist, sheet antagonist_fits; for hill_gw (Hill model slope) / hill_tp (Hill model top): 0 where win_model is Constant

Row | Compound | max_med (maximum median response) (AR2 cells (HepG2-AR2)) | hill_tp (Hill model top) (AR2 cells (HepG2-AR2)) | also measured
1 | CCCCCCOC(=O)c1ccccc1C(=O)OCCCCCC [Dihexyl phthalate] | 14.953 | 18.2229 | 
2 | C#CC(C)(C)NC(=O)c1cc(Cl)cc(Cl)c1 [Propyzamide] | 10.1701 | 0 | 
3 | C[Si]1(C)O[Si](C)(C)O[Si](C)(C)O[Si](C)(C)O1 [Octamethylcyclotetrasiloxane] | 28.4969 | 38.8496 | 
4 | CCC[CH2][Sn]([Cl])([CH2]CCC)[CH2]CCC [Tributylchlorostannane] | 99.8606 | 99.7567 | 
5 | CCCCCOC(=O)c1ccccc1C(=O)OCCCCC [Dipentyl phthalate] | 14.047 | 13.5743 | 
6 | O=C(O)c1ccc(O)cc1 [4-Hydroxybenzoic acid] | 5.145 | 0 | 
7 | CCCCCCCCCc1ccc(O)cc1 [4-Nonylphenol] | 99.78 | 100.689 | 
8 | CCN(CC)CCOc1ccc(C(=C(Cl)c2ccccc2)c2ccccc2)cc1 [Clomiphene citrate] | 99.676 | 104.376 | max_med (human AR [1]): -0.008157; max_med (maximum median response) (human AR [2]): 103.883; win_model (winning concentration-response model) (human AR [2]): Hill; hill_gw (Hill model slope) (human AR [2]): 2.036; hill_tp (Hill model top) (human AR [2]): 106.625
9 | CCCCN(CC)c1c([N+](=O)[O-])cc(C(F)(F)F)cc1[N+](=O)[O-] [Benfluralin] | 17.0663 | 11.4566 | 
10 | CCCCCCCCCCCCc1ccc(O)cc1 [4-Dodecylphenol] | 99.7202 | 99.8404 | 
11 | CCCCC(CC)COC(=O)CCCCC(=O)OCC(CC)CCCC (stereo not drawn) [Bis(2-ethylhexyl)hexanedioate] | 8.67 | 0 | 
12 | O=C(c1ccccc1)c1ccc(O)cc1O [2,4-Dihydroxybenzophenone] | 13.9578 | 7.468 | 
13 | Clc1ccc(C(c2ccc(Cl)cc2)C(Cl)(Cl)Cl)cc1 [Dichlorodiphenyltrichloroethane] | 73.7925 | 94.5035 | 
14 | O=c1c(O)c(-c2ccc(O)cc2)oc2cc(O)cc(O)c12 [Kaempferol] | 36.6036 | 30.9927 | 
15 | COP(=S)(OC)Oc1nc(Cl)c(Cl)cc1Cl [Chlorpyrifos-methyl] | 15.7636 | 36.973 | 
16 | C#C[C@]1(O)CC[C@H]2[C@@H]3CCC4=Cc5oncc5C[C@]4(C)[C@H]3CC[C@@]21C [Danazol] | 99.6979 | 119.707 | 
17 | CCCCC(CC)COC(=O)c1ccc(O)cc1 (stereo not drawn) [2-Ethylhexylparaben] | 99.7953 | 102.21 | 
18 | C#C[C@]1(O)CC[C@H]2[C@@H]3CCc4cc(O)ccc4[C@H]3CC[C@@]21C [17alpha-Ethinylestradiol] | 47.5761 | 60.3321 | 
19 | O=S(=O)(c1ccc(O)cc1)c1ccc(O)cc1 [4,4'-Sulfonyldiphenol] | 24.7063 | 39.4827 | 
20 | Clc1ccc(Cl)cc1 [p-Dichlorobenzene] | 4.77 |  | 
21 | COCC(=O)N(c1c(C)cccc1C)C(C)C(=O)OC (stereo not drawn) [Metalaxyl] | 11.6523 | 11.8758 | 
22 | CC(C)Oc1cccc(NC(=O)c2ccccc2C(F)(F)F)c1 [Flutolanil] | 9.82 | 12.8643 | 
23 | CCOP(=S)(OCC)Oc1cc(C)nc(C(C)C)n1 [Diazinon] | 6.875 | 0 | 
24 | CC(C)(C#N)c1cc(Cn2cncn2)cc(C(C)(C)C#N)c1 [Anastrozole] | 9.832 | 0 | 
25 | CCCCCC(=O)O[C@]1(C(C)=O)CC[C@H]2[C@@H]3CCC4=CC(=O)CC[C@]4(C)[C@H]3CC[C@@]21C [Hydroxyprogesterone caproate] | -5.885 |  | 

Row | Compound | max_med (maximum median response) (AR2 cells (HepG2-AR2)) | hill_tp (Hill model top) (AR2 cells (HepG2-AR2)) | also measured
26 | CC(C)[C@H](C(=O)O[C@H](C#N)c1cccc(Oc2ccccc2)c1)c1ccc(Cl)cc1 [Esfenvalerate] | -0.2527 |  | 
27 | C[C@]12C[C@H](O)[C@H]3[C@@H](CCC4=CC(=O)CC[C@@]43C)[C@@H]1CC[C@@H]2C(=O)CO [Corticosterone] | -0.2958 |  | 
28 | CNC(=O)O/N=C(\SC)C(=O)N(C)C [Oxamyl] | 14.6316 | 13.892 | hill_tp (human AR [1]; Hill model top (efficacy), 0 given where win_model is Constant): 0; max_med (human AR [1]): 0.09886; win_model (human AR [1]; winning concentration-response model (Constant, Hill, Gain-Loss)): Constant; max_med (maximum median response) (human AR [2]): 4.35; win_model (winning concentration-response model) (human AR [2]): Constant; hill_gw (Hill model slope) (human AR [2]): 0; hill_tp (Hill model top) (human AR [2]): 0
29 | CC(C)=CC1C(C(=O)OCc2cccc(Oc3ccccc3)c2)C1(C)C (stereo not drawn) [Phenothrin] | 11.6591 | 28.3579 | 
30 | CC/C(=C(/CC)c1ccc(O)cc1)c1ccc(O)cc1 [Diethylstilbestrol] | 99.7753 | 119.773 | 
31 | COP(=S)(OC)Oc1ccc(SC)c(C)c1 [Fenthion] | 20.1632 | 17.5948 | 
32 | CC(C)C(C(=O)OC(C#N)c1cccc(Oc2ccccc2)c1)c1ccc(Cl)cc1 (stereo not drawn) [Fenvalerate] | 17.5112 | 13.0316 | 
33 | O=C(OC1CCCCC1)c1ccccc1C(=O)OC1CCCCC1 [Dicyclohexyl phthalate] | -2.0313 |  | 
34 | C[C@]12CC[C@@H]3c4ccc(O)cc4CC[C@H]3[C@@H]1CC[C@@H]2O [17beta-Estradiol] | 11.6181 | 15.1874 | 
35 | Cc1c(COC(=O)[C@@H]2[C@H](/C=C(\Cl)C(F)(F)F)C2(C)C)cccc1-c1ccccc1 (racemic) [Bifenthrin] | 19.5548 | 23.386 | 
36 | N#Cc1c(Cl)c(Cl)c(Cl)c(C#N)c1Cl [Chlorothalonil] | 85.6054 | 117.241 | 
37 | CSc1nnc(C(C)(C)C)c(=O)n1N [Metribuzin] | 29.1814 | 43.0001 | 
38 | CCc1cccc(C)c1N(C(=O)CCl)C(C)COC (stereo not drawn) [Metolachlor] | 26.908 | 20.923 | 
39 | O=C1C(Cl)=C(Cl)C(=O)c2ccccc21 [Dichlone, dichlone] | 100 | 121.536 | 
40 | CCCCC(CC)COC(=O)c1ccccc1C(=O)OCC(CC)CCCC (stereo not drawn) [Bis(2-ethylhexyl)phthalate] | 27.6798 | 16.491 | 
41 | Oc1c(Cl)c(Cl)c(Cl)c(Cl)c1Cl [Pentachlorophenol] | 53.4588 | 63.2778 | 
42 | O=c1oc2cc(O)ccc2c2oc3cc(O)ccc3c12 [Coumestrol] | 39.9111 | 51.0591 | 
43 | COP(=O)(NC(C)=O)SC (stereo not drawn) [Acephate] | 10.7949 | 0 | 
44 | CCCCC(CC)COC(=O)c1ccccc1C(=O)O (stereo not drawn) [Mono(2-ethylhexyl) phthalate] | 10.2899 | 5.023 | 
45 | CC(C)(C)C(O)(CCc1ccc(Cl)cc1)Cn1cncn1 (stereo not drawn) [Tebuconazole] | 20.78 | 45.6531 | 
46 | COP(=S)(OC)SCN1C(=O)c2ccccc2C1=O [Phosmet] | 21.0825 | 27.9412 | 
47 | O=C(c1ccc(OCCN2CCCCC2)cc1)c1c(-c2ccc(O)cc2)sc2cc(O)ccc12 [Raloxifene hydrochloride] | 99.7657 |  | 
48 | CCCCC(CC)CN1C(=O)[C@@H]2[C@H](C1=O)[C@@H]1C=C[C@H]2C1 (stereo partly drawn) [Octylbicycloheptenedicarboximide] | 1.86 | 0 | 
49 | CCC(C)(C)c1ccc(O)cc1 [4-(2-Methylbutan-2-yl)phenol] | 17.1743 | 12.5636 | 
50 | Abamectin | 81.1222 |  | 
